Reference: patent publication US20110306597A1, “Nicotinamide Derivatives” (priority 2008, published 2011)

Target: human recombinant H-PGDS (Homo sapiens, UniProt O60760)
Assay: Fluorescence Intensity h-PGDS TBA Enzyme Assay
Format: biochemical
Conditions: 1:175,000 human recombinant H-PGDS, highest inhibitor concentration typically 1 μM
How it was run: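 Readout is PGH2 depletion: after a 42 s reaction with 5.0 μM PGH2 and 2.5 mM glutathione (pH 8.0 Tris, 10 min inhibitor preincubation), Fe(II) converts leftover PGH2 to MDA, which forms a fluorescent TBA complex. IC50s come from 11-point, 3-fold duplicate curves, 4-parameter fit.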

Sequence of human recombinant H-PGDS (O60760 whole entry): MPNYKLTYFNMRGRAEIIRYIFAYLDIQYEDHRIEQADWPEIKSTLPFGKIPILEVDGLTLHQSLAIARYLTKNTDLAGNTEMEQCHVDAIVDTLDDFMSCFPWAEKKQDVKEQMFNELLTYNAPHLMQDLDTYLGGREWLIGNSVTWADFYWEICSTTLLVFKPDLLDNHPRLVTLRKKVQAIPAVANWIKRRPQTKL

COc1cccn(CCNC(=O)c2ccc(-c3cccc(F)c3)nc2)c1=O [Example 48, 6-(3-Fluorophenyl)-N-[2-(3-methoxy-2-oxopyridin-1(2H)-yl)ethyl]nicotinamide]
IC50: 10.7 nM

CCOC(=O)CC(NC(=O)c1ccc(-c2cccc(C)c2)nc1)c1ccc(OC)cc1 (stereo not drawn) [Example 255, Ethyl 3-(4-methoxyphenyl)-3-({[6-(3-methylphenyl)pyridin-3-yl]carbonyl}amino)propanoate]
IC50: 38.7 nM

COc1cccc(-c2ccc(C(=O)NCc3nnc(-c4cccnc4)[nH]3)cn2)c1 [Example 510, 6-(3-Methoxyphenyl)-N-[(5-pyridin-3-yl-4H-1,2,4-triazol-3-yl)methyl]nicotinamide]
IC50: 575 nM

Cc1cc(C)nc(CNC(=O)c2ccc(-c3cccc(F)c3)nc2)n1 [Example 95, N-[(4,6-Dimethylpyrimidin-2-yl)methyl]-6-(3-fluorophenyl)nicotinamide]
IC50: 95.7 nM

CCOC(=O)Cc1ccc(CNC(=O)c2ccc(-c3cccc(F)c3)nc2)cc1 [Example 205, Ethyl {4-[({[6-(3-fluorophenyl)pyridin-3-yl]carbonyl}amino)methyl]phenyl}acetate]
IC50: 29.9 nM

COc1cccc(-c2ccc(C(=O)NCc3ccc(C(F)(F)F)cc3)cn2)c1 [Example 286, 6-(3-Methoxyphenyl)-N-[4-(trifluoromethyl)benzyl] nicotinamide]
IC50: 536 nM

O=C(NCCN1CCOCC1)c1cnc(-c2cccc(F)c2)c(Cl)c1 [Example 552, 5-Chloro-6-(3-fluorophenyl)-N-(2-morpholin-4-ylethyl)nicotinamide]
IC50: 60.8 nM

CC(C)N1CCCC(CNC(=O)c2ccc(-c3cccc(F)c3)nc2)C1 (stereo not drawn) [Example 116, 6-(3-Fluorophenyl)-N-[(1-isopropylpiperidin-3-yl)methyl]nicotinamide]
IC50: 163 nM

O=C(NCC1(O)CCC1)c1ccc(-c2cccc(F)c2)nc1 [Example 141, 6-(3-Fuorophenyl)-N-[(1-hydroxycyclobutyl)methyl] nicotinamide]
IC50: 34.5 nM

CN1CCC(CCNC(=O)c2ccc(-c3cccc(F)c3)nc2)CC1 [Example 175, 6-(3-Fluorophenyl)-N-[2-(1-methylpiperidin-4-yl)ethyl]nicotinamide]
IC50: 47.1 nM

CCC(C)NC(=O)c1ccc(-c2cccc(F)c2)nc1 (stereo not drawn) [Example 426, N-sec-Butyl-6-(3-fluorophenyl)nicotinamide]
IC50: 111 nM

COc1ccc(C(CNC(=O)c2ccc(-c3cccc(C)c3)nc2)N2CCOCC2)cc1 (stereo not drawn) [Example 315, N-[2-(4-Methoxyphenyl)-2-morpholin-4-ylethyl]-6-(3-methylphenyl)nicotinamide]
IC50: 72.5 nM

O=C(NCc1ccc(C(F)(F)F)cc1)c1ccc(-c2ccc(F)cc2)nc1 [Example 267, 6-(4-Fluorophenyl)-N-[4-(trifluoromethyl)benzyl] nicotinamide]
IC50: ≥ 1000 nM

COc1ccc(C(N)CC(=O)NC(=O)c2ccc(-c3ccc(F)cc3)nc2)cc1OC (stereo not drawn) [Example 466, N-[3-Amino-3-(3,4-dimethoxyphenyl)propanoyl]-6-(4-fluorophenyl)nicotinamide]
IC50: ≥ 1000 nM

O=C(NCC(O)c1ccccc1F)c1cnc(-c2cccc(F)c2)c(Cl)c1 (stereo not drawn) [Example 549, 5-Chloro-6-(3-fluorophenyl)-N-[2-(2-fluorophenyl)-2-hydroxyethyl]nicotinamide]
IC50: 37.9 nM

CCOC(=O)C1(NC(=O)c2ccc(-c3ccccc3)nc2)CCOCC1 [Example 372, Ethyl 4-{[(6-phenylpyridin-3-yl)carbonyl]amino}tetrahydro-2H-pyran-4-carboxylate]
IC50: 249 nM

O=C(NCCN1CCCCC1=O)c1ccc(-c2ccc(F)cc2)nc1 [Example 493, 6-(4-Fluorophenyl)-N-[2-(2-oxopiperidin-1-yl)ethyl]nicotinamide]
IC50: 980 nM

COc1cccc(-c2ccc(C(=O)NCC(C)(C)OC)cn2)c1 [Example 282, N-(2-Methoxy-2-methylpropyl)-6-(3-methoxyphenyl)nicotinamide]
IC50: 959 nM

CCOC(=O)CCCNC(=O)c1ccc(-c2cccc(F)c2)nc1 [Example 192, Ethyl 4-({[6-(3-fluorophenyl)pyridin-3-yl]carbonyl}amino)butanoate]
IC50: 9.04 nM

CCCCN1CC(CNC(=O)c2ccc(-c3cccc(F)c3)nc2)OCC1=O (stereo not drawn) [Example 70, N-[(4-Butyl-5-oxomorpholin-2-yl)methyl]-6-(3-fluorophenyl)nicotinamide]
IC50: 34.2 nM

O=C(NCCN1CCCCC1CO)c1ccc(-c2cccc(F)c2)nc1 (stereo not drawn) [Example 215, 6-(3-Fluorophenyl)-N-{2-[2-(hydroxymethyl)piperidin-1-yl]ethyl}nicotinamide]
IC50: 101 nM

O=C(NCC1(O)CCSCC1)c1ccc(-c2cccc(F)c2)nc1 [Example 139, 6-(3-Fluorophenyl)-N-[(4-hydroxytetrahydro-2H-thiopyran-4-yl)methyl]nicotinamide]
IC50: 39 nM

O=C(NC[C@H]1CC[C@H](c2nnc(C3CC3)[nH]2)CC1)c1ccc(-c2cccc(F)c2)nc1 [Example 9, N-{[trans-4-(5-Cyclopropyl-4H-1,2,4-triazol-3-yl)cyclohexyl]methyl}-6-(3-fluorophenyl)nicotinamide]
IC50: 83.6 nM

COc1cccc(-c2ccc(C(=O)NCc3ccc(S(N)(=O)=O)cc3)cn2)c1 [Example 481, N-[4-(Aminosulfonyl)benzyl]-6-(3-methoxyphenyl) nicotinamide]
IC50: 365 nM

O=C(NCc1cccc(F)c1)c1ccc(-c2ccc(F)cc2)nc1 [Example 465, N-(3-Fluorobenzyl)-6-(4-fluorophenyl)nicotinamide]
IC50: 345 nM

COc1cccc(-c2ccc(C(=O)NCCN3CCCCC3)cn2)c1 [Example 511, 6-(3-methoxyphenyl)-N-(2-piperidin-1-ylethyl)nicotinamide]
IC50: ≥ 1000 nM

CCOC(=O)CC(NC(=O)c1ccc(-c2cccc(OC)c2)nc1)c1ccccc1Cl (stereo not drawn) [Example 276, Ethyl 3-(2-chlorophenyl)-3-({[6-(3-methoxyphenyl)pyridin-3-yl]carbonyl}amino) propanoate]
IC50: 252 nM

O=C(NCCCNc1ccccn1)c1ccc(-c2ccc(F)cc2)nc1 [Example 261, 6-(4-Fluorophenyl)-N-[3-(pyridin-2-ylamino)propyl]nicotinamide]
IC50: 91.8 nM

CC(O)CNC(=O)c1ccc(-c2ccc(F)cc2)nc1 (stereo not drawn) [Example 262, 6-(4-Fluorophenyl)-N-(2-hydroxypropyl)nicotinamide]
IC50: 992 nM

CCn1c(CCNC(=O)c2ccc(-c3ccccc3)nc2)nc2cc(C(=O)NCCOC)ccc21 [Example 391, 1-Ethyl-N-(2-methoxyethyl)-2-(2-{[(6-phenylpyridin-3-yl)carbonyl]amino}ethyl)-1H-benzimidazole-5-carboxamide]
IC50: 0.906 nM

CN1CCc2nc(N3CCCC(CNC(=O)c4ccc(-c5cccc(F)c5)nc4)C3)ncc2C1 (stereo not drawn) [Example 89, 6-(3-Fluorophenyl)-N-{[1-(6-methyl-5,6,7,8-tetrahydropyrido[4,3-d]pyrimidin-2-yl)piperidin-3-yl]methyl}nicotinamide]
IC50: 6.13 nM

CCCOCCCNC(=O)c1ccc(-c2cccc(F)c2)nc1 [Example 22, 6-(3-Fluorophenyl)-N-(3-propoxypropyl)nicotinamide]
IC50: 13.8 nM

O=C(NC(c1ccc(F)c(F)c1)c1nn[nH]n1)c1ccc(-c2cccc(F)c2)nc1 (stereo not drawn) [Example 59, N-[(3,4-Difluorophenyl)(2H-tetrazol-5-yl)methyl]-6-(3-fluorophenyl)nicotinamide]
IC50: 10.6 nM
